Measured values published in PubChem BioAssay (NCI).
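48-hour exposure; five concentrations; linearly interpolated endpoints. Abbreviation: GI50, concentration required for 50% inhibition of growth. TGI: concentration producing complete growth inhibition.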

How the values were obtained:
Assay in all cases: DTP human tumour cell line panel, 48 h
786-0 renal = system: 786-0 renal
A498 renal = system: A498 renal
A549 NSCLC = system: A549 NSCLC
ACHN renal = system: ACHN renal
BT-549 breast = system: BT-549 breast
CAKI-1 renal = system: CAKI-1 renal
CCRF-CEM leukemia = system: CCRF-CEM leukemia
COLO 205 colon = system: COLO 205 colon
DU-145 prostate = system: DU-145 prostate
EKVX NSCLC = system: EKVX NSCLC
HCC-2998 colon = system: HCC-2998 colon
HCT-116 colon = system: HCT-116 colon
HCT-15 colon = system: HCT-15 colon
HL-60(TB) leukemia = system: HL-60(TB) leukemia
HOP-62 NSCLC = system: HOP-62 NSCLC
HOP-92 NSCLC = system: HOP-92 NSCLC
HS 578T breast = system: HS 578T breast
HT29 colon = system: HT29 colon
IGROV1 ovarian = system: IGROV1 ovarian
K-562 leukemia = system: K-562 leukemia
KM12 colon = system: KM12 colon
LOX IMVI melanoma = system: LOX IMVI melanoma
M14 melanoma = system: M14 melanoma
MALME-3M melanoma = system: MALME-3M melanoma
MCF7 breast = system: MCF7 breast
MDA-MB-231 breast = system: MDA-MB-231 breast
MDA-MB-435 = system: MDA-MB-435
MOLT-4 leukemia = system: MOLT-4 leukemia
NCI-H226 lung = system: NCI-H226 lung
NCI-H23 lung = system: NCI-H23 lung
NCI-H460 lung = system: NCI-H460 lung
NCI-H522 lung = system: NCI-H522 lung
NCI/ADR-RES ovarian = system: NCI/ADR-RES ovarian
OVCAR-3 ovarian = system: OVCAR-3 ovarian
OVCAR-4 ovarian = system: OVCAR-4 ovarian
OVCAR-5 ovarian = system: OVCAR-5 ovarian
OVCAR-8 ovarian = system: OVCAR-8 ovarian
PC-3 prostate = system: PC-3 prostate
RPMI-8226 leukemia = system: RPMI-8226 leukemia
SF-268 CNS = system: SF-268 CNS
SF-295 CNS = system: SF-295 CNS
SF-539 CNS = system: SF-539 CNS
SK-MEL-2 melanoma = system: SK-MEL-2 melanoma
SK-MEL-28 melanoma = system: SK-MEL-28 melanoma
SK-MEL-5 melanoma = system: SK-MEL-5 melanoma
SK-OV-3 ovarian = system: SK-OV-3 ovarian
SN12C renal = system: SN12C renal
SNB-19 CNS = system: SNB-19 CNS
SNB-75 CNS = system: SNB-75 CNS
SR leukemia = system: SR leukemia
SW-620 colon = system: SW-620 colon
T-47D breast = system: T-47D breast
TK-10 renal = system: TK-10 renal
U251 CNS = system: U251 CNS
UACC-257 melanoma = system: UACC-257 melanoma
UACC-62 melanoma = system: UACC-62 melanoma
UO-31 renal = system: UO-31 renal

In the case of `O=C(CCCCCCNC(=O)C(O)(O)C(F)(F)F)Nc1nc2ccccc2s1`, the GI50 (786-0 renal) is reported as 6.4 µM, the TGI (786-0 renal) is reported as over 29.8 µM and the GI50 (A498 renal) is reported as 1.51 µM. For the same molecule, the TGI (A498 renal) was 12.5 µM, the GI50 (A549 NSCLC) was 7.99 µM and the TGI (A549 NSCLC) was over 29.8 µM. For the same molecule, the GI50 (ACHN renal) was 3.59 µM, the TGI (ACHN renal) was 17.3 µM and the GI50 (BT-549 breast) was 7.06 µM. For the same molecule, the TGI (BT-549 breast) was over 29.8 µM, the GI50 (CAKI-1 renal) was 6.99 µM and the TGI (CAKI-1 renal) was over 29.8 µM. It also gave a GI50 (CCRF-CEM leukemia) of 2.01 µM, a TGI (CCRF-CEM leukemia) of over 29.8 µM and a GI50 (COLO 205 colon) of 3.17 µM. It also gave a TGI (COLO 205 colon) of 9.45 µM, a GI50 (DU-145 prostate) of 4.99 µM and a TGI (DU-145 prostate) of over 29.8 µM. The GI50 (EKVX NSCLC) was 6.39 µM, the TGI (EKVX NSCLC) was over 29.8 µM and the GI50 (HCC-2998 colon) was 5.75 µM. It also gave a TGI (HCC-2998 colon) of 16.8 µM, a GI50 (HCT-116 colon) of 1.23 µM and a TGI (HCT-116 colon) of over 29.8 µM. The GI50 (HCT-15 colon) was 5.8 µM, the TGI (HCT-15 colon) was 19.1 µM and the GI50 (HL-60(TB) leukemia) was 1.85 µM. The TGI (HL-60(TB) leukemia) was over 29.8 µM, the GI50 (HOP-62 NSCLC) was 4.29 µM and the TGI (HOP-62 NSCLC) was over 29.8 µM. It also gave a GI50 (HOP-92 NSCLC) of 0.751 µM, a TGI (HOP-92 NSCLC) of 8.28 µM and a GI50 (HS 578T breast) of 3.57 µM. The TGI (HS 578T breast) was over 29.8 µM, the GI50 (HT29 colon) was 3.75 µM and the TGI (HT29 colon) was over 29.8 µM. The GI50 (IGROV1 ovarian) was 4.87 µM, the TGI (IGROV1 ovarian) was 16.4 µM and the GI50 (K-562 leukemia) was 1.7 µM. The TGI (K-562 leukemia) was over 29.8 µM, the GI50 (KM12 colon) was 5.84 µM and the TGI (KM12 colon) was over 29.8 µM. The GI50 (LOX IMVI melanoma) was 3.41 µM, the TGI (LOX IMVI melanoma) was 7.75 µM and the GI50 (M14 melanoma) was 6.4 µM. For the same molecule, the TGI (M14 melanoma) was over 29.8 µM, the GI50 (MALME-3M melanoma) was 1.49 µM and the TGI (MALME-3M melanoma) was 13 µM. The GI50 (MCF7 breast) was 6.59 µM, the TGI (MCF7 breast) was over 29.8 µM and the GI50 (MDA-MB-231 breast) was 3.59 µM. For the same molecule, the TGI (MDA-MB-231 breast) was 22.1 µM, the GI50 (MDA-MB-435) was 4.36 µM and the TGI (MDA-MB-435) was 23.5 µM. For the same molecule, the GI50 (MOLT-4 leukemia) was 1.21 µM, the TGI (MOLT-4 leukemia) was over 29.8 µM and the GI50 (NCI-H226 lung) was 9.61 µM. The TGI (NCI-H226 lung) was over 29.8 µM, the GI50 (NCI-H23 lung) was 4.94 µM and the TGI (NCI-H23 lung) was 25.9 µM. It also gave a GI50 (NCI-H460 lung) of 2.98 µM, a TGI (NCI-H460 lung) of over 29.8 µM and a GI50 (NCI-H522 lung) of 2.76 µM. It also gave a TGI (NCI-H522 lung) of 14.7 µM, a GI50 (NCI/ADR-RES ovarian) of 3.4 µM and a TGI (NCI/ADR-RES ovarian) of 16.7 µM. For the same molecule, the GI50 (OVCAR-3 ovarian) was 3.17 µM, the TGI (OVCAR-3 ovarian) was 8.39 µM and the GI50 (OVCAR-4 ovarian) was 11 µM. The TGI (OVCAR-4 ovarian) was over 29.8 µM, the GI50 (OVCAR-5 ovarian) was 2.33 µM and the TGI (OVCAR-5 ovarian) was 15 µM. The GI50 (OVCAR-8 ovarian) was 2.86 µM, the TGI (OVCAR-8 ovarian) was over 29.8 µM and the GI50 (PC-3 prostate) was 5.01 µM. It also gave a TGI (PC-3 prostate) of over 29.8 µM, a GI50 (RPMI-8226 leukemia) of 2.73 µM and a TGI (RPMI-8226 leukemia) of over 29.8 µM. It also gave a GI50 (SF-268 CNS) of 7.69 µM, a TGI (SF-268 CNS) of over 29.8 µM and a GI50 (SF-295 CNS) of 3.43 µM. It also gave a TGI (SF-295 CNS) of 8.88 µM, a GI50 (SF-539 CNS) of 6.56 µM and a TGI (SF-539 CNS) of over 29.8 µM. It also gave a GI50 (SK-MEL-2 melanoma) of 4.43 µM, a TGI (SK-MEL-2 melanoma) of 21 µM and a GI50 (SK-MEL-28 melanoma) of 3.76 µM. For the same molecule, the TGI (SK-MEL-28 melanoma) was over 29.8 µM, the GI50 (SK-MEL-5 melanoma) was 4.08 µM and the TGI (SK-MEL-5 melanoma) was 8.13 µM. For the same molecule, the GI50 (SK-OV-3 ovarian) was 2.27 µM, the TGI (SK-OV-3 ovarian) was 12.6 µM and the GI50 (SN12C renal) was 6.39 µM. It also gave a TGI (SN12C renal) of over 29.8 µM, a GI50 (SNB-19 CNS) of 6.49 µM and a TGI (SNB-19 CNS) of over 29.8 µM. The GI50 (SNB-75 CNS) was 1.67 µM, the TGI (SNB-75 CNS) was over 29.8 µM and the GI50 (SR leukemia) was 1.23 µM. The TGI (SR leukemia) was over 29.8 µM, the GI50 (SW-620 colon) was 2.08 µM and the TGI (SW-620 colon) was 11 µM. For the same molecule, the GI50 (T-47D breast) was 2.24 µM, the TGI (T-47D breast) was 22.8 µM and the GI50 (TK-10 renal) was 1.17 µM. It also gave a TGI (TK-10 renal) of over 29.8 µM, a GI50 (U251 CNS) of 4.32 µM and a TGI (U251 CNS) of 25.5 µM. It also gave a GI50 (UACC-257 melanoma) of 6.56 µM, a TGI (UACC-257 melanoma) of over 29.8 µM and a GI50 (UACC-62 melanoma) of 1.61 µM. For the same molecule, the TGI (UACC-62 melanoma) was 6.76 µM, the GI50 (UO-31 renal) was 2.01 µM and the TGI (UO-31 renal) was 15.9 µM.
